According to patent US5968791A, “Plant lysophosphatidic acid acyltransferases” (Calgene, Inc., priority 1995, dated 1999):

What was measured:
[1] = tested on: Rapeseed LPAAT; assay: LPAAT activity assay, rapeseed P2 membrane preparation; type: biochemical, Brassica napus; conditions: acyl-CoA donor varied, acceptor 12:0-LPA
Experimental: To assay for LPAAT activity, the sample is incubated with lysophosphatidic acid (LPA) and acyl-coenzyme A (acyl-CoA) substrates in buffered solution. The acyl substituents of the two substrates are chosen to correspond with the specificity of the enzyme being measured. For example, to measure activity of an LPAAT having preference for medium-chain substrates, lauroyl-LPA (lauroyl-lysophosphatidic acid) and lauroyl-CoA may be used, to measure activity of an LPAAT preferring longer-chain acyl groups, oleoyl-LPA and oleoyl-CoA may be used, to measure activity of an LPAAT preferring very-long chain substrate, erucyl-LPA and erucyl-CoA may be used, and so on, depending upon the type of LPAAT to be tested. The acyl group of one substrate is radioactively labeled in order to detect the product formed. In the examples which follow the acyl substituent of the acyl-CoA substrate is radiolabeled with ^14 C in the carboxyl group. LPAAT activity results in transfer of this acyl group from the acyl-CoA "donor" substrate to the LPA "acceptor" substrate, converting the latter into the product, phosphatidic acid (PA). LPAAT activity is measured as the amount of radioactive product formed in a given assay time. The PA product is radioactive as a result of the transferred radiolabeled acyl group at the central carbon atom of the molecule, and the quantity of PA formed may be determined by measuring radioactivity of the PA fraction. For this measurement, the PA is first separated from the acyl-CoA substrate by solvent partitioning, or by thin-layer chromatography (TLC).
20 μl of the sample to be assayed for LPAAT activity is mixed with 217.5 μl of an assay ingredient mixture in a 4-ml, screw-cap vial. […] The incubation takes place in a water bath at 30° C., for 20-30 minutes.
To stop the assay, 0.25 ml of 1M KCl in 0.2M H3 PO4 is added to the vial. At this point, 40 μl BSA (bovine serum albumin, fraction V) at 1 mg/ml are added, followed by 0.75 ml of a solution of 67 μg/ml unlabeled PA (acting as a "carrier" to facilitate partitioning) in chloroform/methanol (2:1, v/v). The chain lengths of the PA acyl groups are chosen to correspond to those used in the assay substrates. Upon thorough mixing of these components the radiolabeled PA product of the LPAAT reaction partitions into the organic phase and away from the unreacted acyl-CoA and LPA. The vial is centrifuged briefly at low speed to facilitate the separation of organic (lower) and aqueous (upper) phases. The aqueous phase is then removed and discarded. The total radioactivity extracted into the organic phase is determined by liquid scintillation counting; a 100 μl sample of the organic phase is transferred to a 20 ml scintillation vial and allowed to dry, and scintillation fluid (3-5 ml) is added to the vial. The radioactivity of the sample, after subtraction of the "minus-enzyme" or "minus-LPA" radioactivities, is taken as an approximate indication of the amount of PA formed in the LPAAT-catalyzed reaction and therefore of LPAAT activity.
A more accurate estimation of the LPAAT activity may be obtained by separating the PA product from these contaminants by TLC. The remaining organic phase is applied to a silica TLC plate. […] After the plate has dried, the distribution of radioactivity is visualized and quantitated using an AMBIS radioanalytic imaging system (AMBIS Systems Inc., San Diego, Calif.). From prior application of standard lipid components the Rf of the PA is known. The radioactivity associated with the PA spot is expressed as a percentage of the total radioactivity of the assay sample loaded on the plate. This ratio provides an indication of the proportion of the scintillation counts which represent the PA product, and may be used to correct the counts to obtain the total PA radioactivity formed in the assay.
A P2 membrane homogenate from immature embryos of developing rapeseed (Brassica napus) seeds is prepared essentially as described above, except as noted below.

[2] = tested on: bay LPAAT; assay: LPAAT activity assay, California bay P2 membrane preparation; type: biochemical, Umbellularia californica; conditions: P2 membrane preparation; acyl-CoA donor varied, acceptor 12:0-LPA
Experimental: To assay for LPAAT activity, the sample is incubated with lysophosphatidic acid (LPA) and acyl-coenzyme A (acyl-CoA) substrates in buffered solution. The acyl substituents of the two substrates are chosen to correspond with the specificity of the enzyme being measured. […] The acyl group of one substrate is radioactively labeled in order to detect the product formed. In the examples which follow the acyl substituent of the acyl-CoA substrate is radiolabeled with ^14 C in the carboxyl group. LPAAT activity results in transfer of this acyl group from the acyl-CoA "donor" substrate to the LPA "acceptor" substrate, converting the latter into the product, phosphatidic acid (PA). LPAAT activity is measured as the amount of radioactive product formed in a given assay time. The PA product is radioactive as a result of the transferred radiolabeled acyl group at the central carbon atom of the molecule, and the quantity of PA formed may be determined by measuring radioactivity of the PA fraction. For this measurement, the PA is first separated from the acyl-CoA substrate by solvent partitioning, or by thin-layer chromatography (TLC).
A more accurate estimation of the LPAAT activity may be obtained by separating the PA product from these contaminants by TLC. The remaining organic phase is applied to a silica TLC plate. Ascending chromatography is carried out for 50 minutes, using the solvent mixture chloroform/pyridine/88% formic acid (50:30:7, v/v). After the plate has dried, the distribution of radioactivity is visualized and quantitated using an AMBIS radioanalytic imaging system (AMBIS Systems Inc., San Diego, Calif.). From prior application of standard lipid components the Rf of the PA is known. The radioactivity associated with the PA spot is expressed as a percentage of the total radioactivity of the assay sample loaded on the plate. This ratio provides an indication of the proportion of the scintillation counts which represent the PA product, and may be used to correct the counts to obtain the total PA radioactivity formed in the assay.

[3] = tested on: control rapeseed LPAAT; assay: LPAAT acyl-CoA specificity, control P2 preparation; type: biochemical; conditions: acyl-CoA donor varied at 5 μM, acceptor 12:0-LPA; 30 minute reaction
Experimental: (§1) Detailed acyl-CoA chain-length specificity analysis of control P2 preparations and LPAAT-transformed line 5511-5 were determined as described above, using the original 30 minute reaction time. The acyl-CoA substrates for this analysis are present in methanol, and thus the assay also had the following modifications. The first solution placed in the assay vial was the volume of each radiolabeled acyl-CoA required for 5 μM final assay concentration. […] After mixing to redissolve the acyl-CoA off the vial wall, the reaction is started by addition of 25 μl of a 5-fold diluted P2 preparation and continued as before. Acyl-CoA substrates used in this analysis were 8:0, 10:0, 12:0, 14:0, 16:0, 18:0, and 18:1. The acceptor substrate in these assays was 12:0-LPA.

[4] = biological target: T1, LPAAT of transformant 5511-5 (Cocos nucifera, UniProt Q42670); assay: LPAAT acyl-CoA specificity, P2 preparation of LPAAT-transformed line 5511-5; type: biochemical, Rapeseed; conditions: acyl-CoA donor varied at 5 μM, acceptor 12:0-LPA; 30 minute reaction
T1 construct: crude P2 membranes, host LPAAT also present
T1 sequence (Q42670 1-308): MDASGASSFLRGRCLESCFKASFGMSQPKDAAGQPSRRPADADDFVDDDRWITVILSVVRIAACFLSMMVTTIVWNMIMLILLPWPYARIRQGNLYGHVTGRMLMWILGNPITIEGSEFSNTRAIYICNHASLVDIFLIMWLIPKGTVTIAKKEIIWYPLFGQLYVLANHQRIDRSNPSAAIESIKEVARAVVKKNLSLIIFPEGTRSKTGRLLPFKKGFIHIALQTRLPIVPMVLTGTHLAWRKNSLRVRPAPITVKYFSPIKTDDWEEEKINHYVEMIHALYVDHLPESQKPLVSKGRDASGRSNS
Experimental: as §1

Row | Structure (SMILES) | LPAAT Activity from Rapeseed [1] | LPAAT Activity from Bay [2] | Cpm PA Product, Control [3] | Cpm PA Product, 5511-5 [4]
1 | CCCCCCCC(=O)SCCNC(=O)CCNC(=O)[C@H](O)C(C)(C)COP(=O)(O)OP(=O)(O)OC[C@H]1O[C@@H](n2cnc3c(N)ncnc32)[C@H](O)[C@@H]1OP(=O)(O)O [8:0] | 2 pmol PA formed/30 min assay | 13 pmol PA formed/30 min assay | 149 Cpm | 454 Cpm
2 | CCCCCCCCCC(=O)SCCNC(=O)CCNC(=O)[C@H](O)C(C)(C)COP(=O)(O)OP(=O)(O)OC[C@H]1O[C@@H](n2cnc3c(N)ncnc32)[C@H](O)[C@@H]1OP(=O)(O)O [10:0] | 12 pmol PA formed/30 min assay | 10 pmol PA formed/30 min assay | 831 Cpm | 5648 Cpm
3 | CCCCCCCCCCCCCC(=O)SCCNC(=O)CCNC(=O)[C@H](O)C(C)(C)COP(=O)(O)OP(=O)(O)OC[C@H]1O[C@@H](n2cnc3c(N)ncnc32)[C@H](O)[C@@H]1OP(=O)(O)O [14:0] | 16 pmol PA formed/30 min assay | 5 pmol PA formed/30 min assay | 1544 Cpm | 5080 Cpm
4 | CCCCCCCCCCCCCCCC(=O)SCCNC(=O)CCNC(=O)[C@H](O)C(C)(C)COP(=O)(O)OP(=O)(O)OC[C@H]1O[C@@H](n2cnc3c(N)ncnc32)[C@H](O)[C@@H]1OP(=O)(O)O [16:0] | 27 pmol PA formed/30 min assay | 6 pmol PA formed/30 min assay | 3034 Cpm | 4569 Cpm
5 | CCCCCCCC/C=C\CCCCCCCC(=O)SCCNC(=O)CCNC(=O)[C@H](O)C(C)(C)COP(=O)(O)OP(=O)(O)OC[C@H]1O[C@@H](n2cnc3c(N)ncnc32)[C@H](O)[C@@H]1OP(=O)(O)O [18:1, oleoyl-CoA] | 218 pmol PA formed/30 min assay | 5 pmol PA formed/30 min assay | 7946 Cpm | 8430 Cpm
6 | CCCCCCCCCCCC(=O)SCCNC(=O)CCNC(=O)[C@H](O)C(C)(C)COP(=O)(O)OP(=O)(O)OC[C@H]1O[C@@H](n2cnc3c(N)ncnc32)[C@H](O)[C@@H]1OP(=O)(O)O [12:0, lauroyl-CoA] | 79 pmol PA formed/30 min assay | 14 pmol PA formed/30 min assay | 1758 Cpm | 9337 Cpm
